Laboratory results published in the NIST ThermoML archive (doi:10.1021/je800110r).
Several values for one entry are separate records, joined by “and”; a condition that tells them apart may be missing. Equal values may be shown once.

Details: 313.14 K, Liquid, Vibrating tube method

CCCCCCCCCC [decane]
Details | mass density
4519 kPa | 718.5 kg/m3
4530 kPa | 718.5 kg/m3
4546 kPa | 718.5 kg/m3
4557 kPa | 718.5 kg/m3
4572 kPa | 718.5 kg/m3
4582 kPa | 718.5 kg/m3
4599 kPa | 718.5 kg/m3
4610 kPa | 718.6 kg/m3
4621 kPa | 718.5 kg/m3
4637 kPa | 718.6 kg/m3
4652 kPa | 718.6 kg/m3
4667 kPa | 718.6 kg/m3
4685 kPa | 718.6 kg/m3
4705 kPa | 718.7 kg/m3
4723 kPa | 718.6 kg/m3
4741 kPa | 718.8 kg/m3
4755 kPa | 718.6 kg/m3
4774 kPa | 718.6 kg/m3
4792 kPa | 718.7 kg/m3
4814 kPa | 718.7 kg/m3
4825 kPa | 718.7 kg/m3
4842 kPa | 718.7 kg/m3
4859 kPa | 718.8 kg/m3
4873 kPa | 718.8 kg/m3
4891 kPa | 718.7 kg/m3
4913 kPa | 718.8 kg/m3
4930 kPa | 718.8 kg/m3
4945 kPa | 718.8 kg/m3
4968 kPa | 718.8 kg/m3
4991 kPa | 718.9 kg/m3
5004 kPa | 718.8 kg/m3
5027 kPa | 718.9 kg/m3
5042 kPa | 718.9 kg/m3
5063 kPa | 718.9 kg/m3
5079 kPa | 719 kg/m3
5092 kPa | 719 kg/m3
5111 kPa | 719 kg/m3
5130 kPa | 719 kg/m3
5149 kPa | 719 kg/m3
5165 kPa | 718.9 kg/m3
5185 kPa | 719 kg/m3
5207 kPa | 719 kg/m3
5230 kPa | 719.2 kg/m3
5251 kPa | 719.2 kg/m3
5270 kPa | 719.1 kg/m3
5300 kPa | 719.2 kg/m3
5315 kPa | 719.3 kg/m3
5316 kPa | 719.2 kg/m3
5318 kPa | 719.2 kg/m3
5320 kPa | 719.2 kg/m3
5321 kPa | 719.1 kg/m3 and 719.3 kg/m3
5322 kPa | 719.2 kg/m3
5338 kPa | 719.1 kg/m3
5355 kPa | 719.1 kg/m3
5373 kPa | 719.2 kg/m3
5385 kPa | 719.3 kg/m3
5399 kPa | 719.3 kg/m3
5414 kPa | 719.1 kg/m3
5430 kPa | 719.2 kg/m3
5444 kPa | 719.2 kg/m3
5461 kPa | 719.2 kg/m3
5478 kPa | 719.2 kg/m3
5498 kPa | 719.3 kg/m3
5515 kPa | 719.3 kg/m3
5537 kPa | 719.4 kg/m3
5552 kPa | 719.4 kg/m3
5568 kPa | 719.4 kg/m3
5586 kPa | 719.4 kg/m3
5603 kPa | 719.4 kg/m3
5622 kPa | 719.4 kg/m3
5636 kPa | 719.4 kg/m3
5655 kPa | 719.4 kg/m3
5671 kPa | 719.5 kg/m3
5686 kPa | 719.4 kg/m3
5705 kPa | 719.4 kg/m3
5721 kPa | 719.5 kg/m3
5739 kPa | 719.5 kg/m3
5753 kPa | 719.5 kg/m3
5771 kPa | 719.5 kg/m3
5788 kPa | 719.6 kg/m3
5803 kPa | 719.5 kg/m3
5819 kPa | 719.6 kg/m3
5838 kPa | 719.5 kg/m3
5852 kPa | 719.6 kg/m3
5871 kPa | 719.7 kg/m3
5889 kPa | 719.6 kg/m3
5906 kPa | 719.7 kg/m3
5927 kPa | 719.6 kg/m3
5946 kPa | 719.7 kg/m3
5963 kPa | 719.6 kg/m3
5982 kPa | 719.7 kg/m3
6002 kPa | 719.7 kg/m3
6019 kPa | 719.8 kg/m3
6042 kPa | 719.8 kg/m3
6064 kPa | 719.8 kg/m3
6084 kPa | 719.8 kg/m3
6100 kPa | 719.8 kg/m3
6120 kPa | 719.9 kg/m3
6140 kPa | 719.8 kg/m3
6162 kPa | 719.8 kg/m3
6180 kPa | 719.9 kg/m3
6198 kPa | 719.9 kg/m3
6202 kPa | 719.8 kg/m3
6204 kPa | 719.9 kg/m3
6213 kPa | 719.9 kg/m3
6230 kPa | 719.9 kg/m3
6246 kPa | 719.9 kg/m3
6262 kPa | 720 kg/m3
6278 kPa | 719.9 kg/m3
6295 kPa | 720 kg/m3
6313 kPa | 720 kg/m3
6332 kPa | 720 kg/m3
6353 kPa | 720.1 kg/m3
6367 kPa | 720 kg/m3
6383 kPa | 720 kg/m3
6398 kPa | 720.1 kg/m3
6420 kPa | 720.1 kg/m3
6438 kPa | 720.1 kg/m3
6453 kPa | 720 kg/m3
6472 kPa | 720.1 kg/m3
6484 kPa | 720 kg/m3
6500 kPa | 720.1 kg/m3
6518 kPa | 720.1 kg/m3
6531 kPa | 720.1 kg/m3
6545 kPa | 720.1 kg/m3
6559 kPa | 720.1 kg/m3
6575 kPa | 720.1 kg/m3
6586 kPa | 720.2 kg/m3
6599 kPa | 720.3 kg/m3
6611 kPa | 720.2 kg/m3
6626 kPa | 720.1 kg/m3
6643 kPa | 720.3 kg/m3
6658 kPa | 720.3 kg/m3
6675 kPa | 720.3 kg/m3
6689 kPa | 720.2 kg/m3
6708 kPa | 720.2 kg/m3
6723 kPa | 720.2 kg/m3
6742 kPa | 720.4 kg/m3
6755 kPa | 720.3 kg/m3
6767 kPa | 720.4 kg/m3
6785 kPa | 720.4 kg/m3
6815 kPa | 720.3 kg/m3
6833 kPa | 720.3 kg/m3
6865 kPa | 720.4 kg/m3
6886 kPa | 720.5 kg/m3
6901 kPa | 720.4 kg/m3
6948 kPa | 720.6 kg/m3
6966 kPa | 720.6 kg/m3
6975 kPa | 720.6 kg/m3
6989 kPa | 720.6 kg/m3
7007 kPa | 720.5 kg/m3
7019 kPa | 720.6 kg/m3
7031 kPa | 720.6 kg/m3
7045 kPa | 720.6 kg/m3
7061 kPa | 720.6 kg/m3
7077 kPa | 720.6 kg/m3
7089 kPa | 720.7 kg/m3
7101 kPa | 720.6 kg/m3
7118 kPa | 720.6 kg/m3
7136 kPa | 720.7 kg/m3
7149 kPa | 720.6 kg/m3
7165 kPa | 720.7 kg/m3
7180 kPa | 720.7 kg/m3
7195 kPa | 720.7 kg/m3
7209 kPa | 720.7 kg/m3
7226 kPa | 720.7 kg/m3
7241 kPa | 720.8 kg/m3
7252 kPa | 720.6 kg/m3
7264 kPa | 720.7 kg/m3
7279 kPa | 720.8 kg/m3
7292 kPa | 720.8 kg/m3
7306 kPa | 720.8 kg/m3
7317 kPa | 720.7 kg/m3
7332 kPa | 720.8 kg/m3
7347 kPa | 720.8 kg/m3
7360 kPa | 720.9 kg/m3
7375 kPa | 720.8 kg/m3
7392 kPa | 720.9 kg/m3
7410 kPa | 720.8 kg/m3
7423 kPa | 720.9 kg/m3
7441 kPa | 720.8 kg/m3
7455 kPa | 720.9 kg/m3
7473 kPa | 720.9 kg/m3
7487 kPa | 721 kg/m3
7507 kPa | 721 kg/m3
7523 kPa | 721 kg/m3
7537 kPa | 720.9 kg/m3
7553 kPa | 720.9 kg/m3
7569 kPa | 721.1 kg/m3
7590 kPa | 721 kg/m3
7605 kPa | 721 kg/m3
7621 kPa | 721.1 kg/m3
7635 kPa | 721.1 kg/m3
7652 kPa | 721.1 kg/m3
7666 kPa | 721.1 kg/m3
7683 kPa | 721.1 kg/m3
7702 kPa | 721 kg/m3
7717 kPa | 721.1 kg/m3
7731 kPa | 721.2 kg/m3
7750 kPa | 721.2 kg/m3
7768 kPa | 721.2 kg/m3
7782 kPa | 721.1 kg/m3
7805 kPa | 721.2 kg/m3
7820 kPa | 721.3 kg/m3
7835 kPa | 721.2 kg/m3
7851 kPa | 721.3 kg/m3
7873 kPa | 721.2 kg/m3
7890 kPa | 721.3 kg/m3
7910 kPa | 721.2 kg/m3
7922 kPa | 721.3 kg/m3
7941 kPa | 721.2 kg/m3
7959 kPa | 721.4 kg/m3
8144 kPa | 721.4 kg/m3
8162 kPa | 721.4 kg/m3
8174 kPa | 721.5 kg/m3
8184 kPa | 721.6 kg/m3
8194 kPa | 721.6 kg/m3
8205 kPa | 721.5 kg/m3
8220 kPa | 721.6 kg/m3
8237 kPa | 721.5 kg/m3
8248 kPa | 721.5 kg/m3
8262 kPa | 721.5 kg/m3
8277 kPa | 721.6 kg/m3
8293 kPa | 721.5 kg/m3
8309 kPa | 721.7 kg/m3
8321 kPa | 721.6 kg/m3
8338 kPa | 721.7 kg/m3
8352 kPa | 721.6 kg/m3
8364 kPa | 721.7 kg/m3
8383 kPa | 721.6 kg/m3
8395 kPa | 721.7 kg/m3
8410 kPa | 721.7 kg/m3
8421 kPa | 721.7 kg/m3
8435 kPa | 721.8 kg/m3
8448 kPa | 721.8 kg/m3
8462 kPa | 721.7 kg/m3
8482 kPa | 721.9 kg/m3
8494 kPa | 721.8 kg/m3
8514 kPa | 721.7 kg/m3
8524 kPa | 721.8 kg/m3
8544 kPa | 721.9 kg/m3
8559 kPa | 721.8 kg/m3
8579 kPa | 721.8 kg/m3
8592 kPa | 721.8 kg/m3
8614 kPa | 721.8 kg/m3
8629 kPa | 721.8 kg/m3
8680 kPa | 721.9 kg/m3
8691 kPa | 722.1 kg/m3
8725 kPa | 722.1 kg/m3
8740 kPa | 722 kg/m3
8754 kPa | 722 kg/m3
8773 kPa | 722 kg/m3
8791 kPa | 722 kg/m3
8807 kPa | 722.1 kg/m3
8821 kPa | 722 kg/m3
8835 kPa | 721.9 kg/m3
8858 kPa | 722.1 kg/m3
8876 kPa | 722.2 kg/m3
8897 kPa | 722.1 kg/m3
8911 kPa | 722.1 kg/m3
8930 kPa | 722.1 kg/m3
8944 kPa | 722 kg/m3
8964 kPa | 722 kg/m3
8980 kPa | 722.1 kg/m3
9004 kPa | 722.1 kg/m3
9023 kPa | 722.2 kg/m3
9038 kPa | 722.2 kg/m3
9053 kPa | 722.2 kg/m3
9075 kPa | 722.3 kg/m3
9092 kPa | 722.2 kg/m3
9106 kPa | 722.2 kg/m3
9121 kPa | 722.3 kg/m3
9138 kPa | 722.3 kg/m3
